The experiment concerns HUVEC. Nature of the experiment: Human Umbilical Vein Endothelial Cell (HUVEC) proliferation assay (BrdU incorporation). The format is cell-based. Particulars: VEGF-stimulated HUVEC, 72 hrs, read-out: Inhibition of HUVEC proliferation IC50. On the procedure:
Human Umbilical Vein Endothelial Cell (HUVEC) Proliferation Assay (BrdU Incorporation) Materials
HUVEC cells and EGM-MV (Endothelial cell growth medium—microvascular) were purchased from Clonetics (San Diego, Calif.). VEGF and bFGF were purchased from R&D Systems (Minneapolis, Minn.). Anti-BrdU antibody was obtained from Chemicon International (Temecula, Calif.).
HUVECs were routinely maintained in EGM-MV medium and were used within passage 7. HUVECs were plated at a density of 2500 cells/well in M199 medium containing 5% FBS (Hyclone) in type I collagen coated plate (Becton Dickinson). The plate was incubated at 37° C. overnight. The medium was removed by aspiration, and test compounds were added to each well in a volume of 0.1 ml/well in serum-free M199 medium. Compound concentrations ranged from 1.5 nM to 30 micromolar. The plate was incubated for 30 min at 37° C. Another 0.1 ml of serum-free M199 medium containing BSA and VEGF (or bFGF) was added to give a final concentration of 0.1% BSA and 10 ng/ml VEGF (0.3 ng/ml bFGF). The plate was incubated at 37° C. for 72 hrs. BrdU was added to each well after the first 48 hrs to give a concentration of 10 micromolar. The calorimetric ELISA assay was performed according to manufacturer's (Roche Molecular Sciences) instructions, with detection by absorbance reading at 450 nm. Results were plotted as concentration of test compound vs. absorbance to give an IC50 value for inhibition of BrdU incorporation.
For orientation: Dividing cells build labelled thymidine or BrdU into new DNA.

For 13 compounds, IC50 results are on record in US8114885B2, “Chemical compounds” (GlaxoSmithKline LLC, priority 2000, dated 2012).

Counter-ions that a name gives are not always drawn. Some results are limits rather than exact numbers.

Regarding `Cc1n[nH]c2cc(N(C)c3nc(Nc4ccc(S(N)(=O)=O)cc4)ncc3F)ccc12` [Example 9, 4-({5-fluoro-4-[methyl(3-methyl-1H-indazol-6-yl)amino]-2-pyrimidinyl}amino)benzenesulfonamide], the IC50 lay in the range of 201 to 500 nM.

In the case of `CCS(=O)(=O)c1ccc(OC)c(Nc2nccc(N(C)c3ccc4c(C)n[nH]c4c3)n2)c1` [Example 22, N^2-[5-(ethylsulfonyl)-2-methoxyphenyl]-N^4-methyl-N^4-(3-methyl-1H-indazol-6-yl)-2,4-pyrimidinediamine], the IC50 was 1 to 200 nM.

Take `Cc1n[nH]c2cc(N(C)c3ncnc(Nc4cccc(CS(C)(=O)=O)c4)n3)ccc12` [Example 16, N^2-methyl-N^2-(3-methyl-1H-indazol-6-yl)-N^4-{3-[(methylsulfonyl)methyl]phenyl}-1,3,5-triazine-2,4-diamine hydrochloride]: the IC50 was in the range of 201 to 500 nM.

With `Cc1n[nH]c2cc(N(C)c3ccnc(Nc4cccc(NS(C)(=O)=O)c4)n3)ccc12` [Example 27, N-[3-({4-[methyl(3-methyl-1H-indazol-6-yl)amino]-2-pyrimidinyl}amino)phenyl]methanesulfonamide], the IC50 lay within 1 to 200 nM.

`CC(=O)Nc1cccc(Nc2nccc(N(C)c3ccc4c(C)n[nH]c4c3)n2)c1` [Example 31, N-[3-({4-[methyl(3-methyl-1H-indazol-6-yl)amino]-2-pyrimidinyl}amino)phenyl]acetamide]: the IC50 lay in the range of 1 to 200 nM.

As to `COc1ccc(S(=O)(=O)Cc2cc(C)on2)cc1Nc1nccc(Nc2ccc3c(C)n[nH]c3c2)n1` [Example 33, N^2-(2-methoxy-5-{[(5-methyl-3-isoxazolyl)methyl]sulfonyl}phenyl)-N^4-(3-methyl-1H-indazol-6-yl)-2,4-pyrimidinediamine], the IC50 is above 1000 nM.

With `CN(c1ccc2c(CO)n(C)nc2c1)c1ccnc(Nc2cccc(S(N)(=O)=O)c2)n1` [Example 73, 3-({4-[[3-(hydroxymethyl)-2-methyl-2H-indazol-6-yl](methyl)amino]pyrimidin-2-yl}amino)benzenesulfonamide], the IC50 is 1 to 200 nM.

Regarding `Cc1n[nH]c2cc(N(C)c3ccnc(Nc4ccc(Cl)c(S(N)(=O)=O)c4)n3)ccc12` [Example 60, 2-chloro-5-({4-[methyl(3-methyl-1H-indazol-6-yl)amino]-2-pyrimidinyl}amino)benzenesulfonamide], the IC50 is 1 to 200 nM.

In the case of `CN(c1ccc2cn[nH]c2c1)c1ccnc(Nc2cccc(CS(C)(=O)=O)c2)n1` [Example 37, N^4-(1H-indazol-6-yl)-N^4-methyl-N^2-{3-[(methylsulfonyl)methyl]phenyl}-2,4-pyrimidinediamine], the IC50 lay within 201 to 500 nM.

Take `COc1ccc(S(=O)(=O)NC(C)C)cc1Nc1ncc(F)c(N(C)c2ccc3c(C)n[nH]c3c2)n1` [Example 4, 3-({5-fluoro-4-[methyl(3-methyl-1H-indazol-6-yl)amino]-2-pyrimidinyl}amino)-N-isopropyl-4-methoxybenzenesulfonamide]: the IC50 was 201 to 500 nM.

As for `CCc1n[nH]c2cc(N(C)c3nc(Nc4cccc(CS(C)(=O)=O)c4)ncc3F)ccc12` [Example 8, N^4-(3-ethyl-1H-indazol-6-yl)-5-fluoro-N^4-methyl-N^2-{3-[(methylsulfonyl)methyl]phenyl}-2,4-pyrimidinediamine], the IC50 was in the range of 201 to 500 nM.

Regarding `Cc1nc2cc(N(C)c3ccnc(Nc4cccc(S(N)(=O)=O)c4)n3)ccc2n1C` [Example 74, 3-({4-[(1,2-dimethyl-1H-benzimidazol-5-yl)(methyl)amino]pyrimidin-2-yl}amino)benzenesulfonamide], the IC50 is 1 to 200 nM.

Turning to `Cc1n[nH]c2cc(N(C)c3ccnc(Nc4cccc([S+](C)[O-])c4)n3)ccc12` (stereo not shown) [Example 66, N^4-methyl-N^4-(3-methyl-1H-indazol-6-yl)-N^2-[3-(methylsulfinyl)phenyl]-2,4-pyrimidinediamine], the IC50 was in the range of 1 to 200 nM.
